Assay results as given in patent publication US20210255193A1, “LYSINE REACTIVE PROBES AND USES THEREOF” (The Scripps Research Institute, priority 2017, published 2021).

Legend:
Assay in all cases: competitive isoTOP-ABPP
Type in all cases: binding
[1] = molecular target: T1, NUDT22 Nucleoside diphosphate-linked moiety X motif 22 (Homo sapiens, UniProt Q9BRQ3); conditions: for isoTOP-ABPP ratio (R) at liganded lysine Q9BRQ3_K60: sol, 231
T1 construct: isoTOP-ABPP experiments performed in cell lysates (in vitro); endogenous in cells; host or cells: soluble proteome of human cancer cell lines (MDA-MB-231; Ramos and Jurkat also prepared)
T1 sequence (Q9BRQ3 1-303): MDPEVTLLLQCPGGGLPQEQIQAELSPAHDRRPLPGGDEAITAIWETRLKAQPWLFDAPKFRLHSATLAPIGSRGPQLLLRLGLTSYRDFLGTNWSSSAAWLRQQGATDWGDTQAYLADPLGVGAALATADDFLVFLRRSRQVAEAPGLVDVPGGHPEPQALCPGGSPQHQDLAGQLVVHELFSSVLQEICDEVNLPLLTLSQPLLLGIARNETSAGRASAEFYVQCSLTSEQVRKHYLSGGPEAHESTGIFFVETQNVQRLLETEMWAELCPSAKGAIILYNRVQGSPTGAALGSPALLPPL
In short: (§1)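 Probe: STP-alkyne, 0.1 mM, 1 h RT, after fragment pretreatment of lysate (esters 50 μM; guanidinylators 100 μM). Tags: light = compound, heavy = DMSO, via CuAAC. Replicates averaged if SD <60% of mean; otherwise lowest ratio used when any R <4.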

[2] = molecular target: T2, TSTA3 GDP-L-fucose synthase (Homo sapiens, UniProt Q13630); conditions: for isoTOP-ABPP ratio (R) at liganded lysine Q13630_K108: sol, 231
T2 construct: isoTOP-ABPP experiments performed in cell lysates (in vitro); endogenous in cells; host or cells: soluble proteome of human cancer cell lines (MDA-MB-231, Ramos, Jurkat)
T2 sequence (Q13630 whole entry): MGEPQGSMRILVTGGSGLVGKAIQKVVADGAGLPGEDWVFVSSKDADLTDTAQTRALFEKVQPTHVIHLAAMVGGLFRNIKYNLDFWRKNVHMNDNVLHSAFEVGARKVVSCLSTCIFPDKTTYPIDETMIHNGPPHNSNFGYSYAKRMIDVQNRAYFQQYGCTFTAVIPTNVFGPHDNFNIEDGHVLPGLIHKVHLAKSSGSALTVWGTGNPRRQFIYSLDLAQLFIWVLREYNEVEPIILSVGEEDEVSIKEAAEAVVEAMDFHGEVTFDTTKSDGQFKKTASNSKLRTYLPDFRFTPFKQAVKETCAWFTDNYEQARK
In short: as §1

[3] = molecular target: T3, ETFA Electron transfer flavoprotein subunit alpha, mitochondrial (Homo sapiens, UniProt P13804); conditions: for isoTOP-ABPP ratio (R) at liganded lysine P13804_K139: sol, 231
T3 construct: isoTOP-ABPP experiments performed in cell lysates (in vitro); endogenous in cells; host or cells: soluble proteome of human cancer cell lines (MDA-MB-231; Ramos and Jurkat also prepared)
T3 sequence (P13804 20-333): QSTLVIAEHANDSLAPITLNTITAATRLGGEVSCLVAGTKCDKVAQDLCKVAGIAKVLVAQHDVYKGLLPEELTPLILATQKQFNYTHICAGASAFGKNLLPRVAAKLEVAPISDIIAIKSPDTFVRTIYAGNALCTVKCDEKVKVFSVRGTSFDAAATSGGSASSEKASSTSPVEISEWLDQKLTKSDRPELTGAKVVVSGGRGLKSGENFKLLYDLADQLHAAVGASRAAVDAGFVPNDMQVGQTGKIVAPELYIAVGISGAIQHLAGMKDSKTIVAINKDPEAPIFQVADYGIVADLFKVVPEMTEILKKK
T3 sequence (P38117 2-255 partner limits assumed): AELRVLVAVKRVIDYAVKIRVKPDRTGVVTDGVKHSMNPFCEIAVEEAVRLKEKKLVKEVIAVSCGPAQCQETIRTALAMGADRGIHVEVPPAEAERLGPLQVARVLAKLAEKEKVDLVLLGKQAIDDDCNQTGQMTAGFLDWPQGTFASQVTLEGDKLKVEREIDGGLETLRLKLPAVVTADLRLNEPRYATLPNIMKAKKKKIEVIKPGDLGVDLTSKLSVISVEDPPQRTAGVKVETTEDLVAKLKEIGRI
In short: as §1

[4] = molecular target: T4, SLC25A5 ADP/ATP translocase 2 (Homo sapiens, UniProt P05141); conditions: for isoTOP-ABPP ratio (R) at liganded lysine P05141_K23: sol, 231
T4 construct: isoTOP-ABPP experiments performed in cell lysates (in vitro); endogenous in cells; host or cells: MDA-MB-231 soluble lysate
T4 sequence (P05141 1-298): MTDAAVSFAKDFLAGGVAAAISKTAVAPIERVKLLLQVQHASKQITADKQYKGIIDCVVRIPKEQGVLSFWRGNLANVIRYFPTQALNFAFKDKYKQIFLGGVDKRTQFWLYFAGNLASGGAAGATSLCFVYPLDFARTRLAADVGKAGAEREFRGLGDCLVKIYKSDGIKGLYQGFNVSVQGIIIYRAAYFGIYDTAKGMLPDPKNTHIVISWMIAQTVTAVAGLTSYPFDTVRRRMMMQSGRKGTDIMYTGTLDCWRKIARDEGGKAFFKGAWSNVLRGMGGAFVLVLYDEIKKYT
In short: as §1

O=C(CCc1cn(-c2ccccc2)nc1-c1ccccc1)Oc1ccc([N+](=O)[O-])cc1[N+](=O)[O-] [fragment 29, 2,4-Dinitrophenyl 3-(1,3-diphenyl-1H-pyrazol-4-yl)propanoate]
isoTOP-ABPP reactivity ratio at lysine Q9BRQ3_K60 ([1]; 50 uM, 231 sol, in vitro): 0.8
isoTOP-ABPP reactivity ratio at lysine Q13630_K108 ([2]; 50 uM, 231 sol, in vitro): 1.1
isoTOP-ABPP reactivity ratio at lysine P13804_K139 ([3]; 50 uM, 231 sol, in vitro): 0.8
isoTOP-ABPP reactivity ratio at lysine P05141_K23 ([4]; 50 uM, 231 sol, in vitro): 1.5

O=C(Oc1ccc([N+](=O)[O-])cc1[N+](=O)[O-])c1ccc(-c2ccccc2)cc1 [fragment 37, 2,4-Dinitrophenyl [1,1′-biphenyl]-4-carboxylate]
isoTOP-ABPP ratio (R) at liganded lysine Q9BRQ3_K60 ([1]; 50 uM, in vitro): 1.0
isoTOP-ABPP ratio (R) at liganded lysine Q13630_K108 ([2]; 50 uM, in vitro): 2.9
isoTOP-ABPP ratio (R) at liganded lysine P13804_K139 ([3]; 50 uM, in vitro): 0.9
isoTOP-ABPP ratio (R) at liganded lysine P05141_K23 ([4]; 50 uM, in vitro): 1.2

O=C(Oc1ccc([N+](=O)[O-])cc1[N+](=O)[O-])c1ccccc1Nc1cccc(C(F)(F)F)c1 [fragment 40, 2,4-Dinitrophenyl 2-((3-(trifluoromethyl)phenyl)amino)benzoate]
isoTOP-ABPP ratio (R) at liganded lysine Q9BRQ3_K60 ([1]; 50 uM, in vitro): 0.9
isoTOP-ABPP ratio (R) at liganded lysine Q13630_K108 ([2]; 50 uM, in vitro): 0.9
isoTOP-ABPP ratio (R) at liganded lysine P13804_K139 ([3]; 50 uM, in vitro): 0.9
isoTOP-ABPP ratio (R) at liganded lysine P05141_K23 ([4]; 50 uM, in vitro): 0.8

CC(C)(C)OC(=O)NCCCC(=O)Oc1ccc([N+](=O)[O-])cc1[N+](=O)[O-] [fragment 41, 2,4-Dinitrophenyl 4-((tert-butoxycarbonyl)amino)butanoate]
isoTOP-ABPP ratio (R) at liganded lysine Q9BRQ3_K60 ([1]; 50 uM, in vitro): 20.0
isoTOP-ABPP ratio (R) at liganded lysine Q13630_K108 ([2]; 50 uM, in vitro): 1.3
isoTOP-ABPP ratio (R) at liganded lysine P13804_K139 ([3]; 50 uM, in vitro): 20.0
isoTOP-ABPP ratio (R) at liganded lysine P05141_K23 ([4]; 50 uM, in vitro): 1.0

O=C(Oc1ccc([N+](=O)[O-])cc1[N+](=O)[O-])C(c1ccccc1)(c1ccccc1)c1ccccc1 [fragment 42, 2,4-Dinitrophenyl 2,2,2-triphenylacetate]
isoTOP-ABPP ratio (R) at liganded lysine Q9BRQ3_K60 ([1]; 50 uM, in vitro): 0.8
isoTOP-ABPP ratio (R) at liganded lysine Q13630_K108 ([2]; 50 uM, in vitro): 1.0
isoTOP-ABPP ratio (R) at liganded lysine P05141_K23 ([4]; 50 uM, in vitro): 1.1

O=C(CCc1ccc2c(c1)OCO2)Oc1ccc([N+](=O)[O-])cc1[N+](=O)[O-] [fragment 45, 2,4-Dinitrophenyl 3-(benzo[d][1,3]dioxol-5-yl)propanoate]
isoTOP-ABPP ratio, lysine Q9BRQ3_K60 ([1]; 50 uM_231_sol_in vitro): 1.7
isoTOP-ABPP ratio, lysine Q13630_K108 ([2]; 50 uM_231_sol_in vitro): 20.0
isoTOP-ABPP ratio, lysine P13804_K139 ([3]; 50 uM_231_sol_in vitro): 1.0
isoTOP-ABPP ratio, lysine P05141_K23 ([4]; 50 uM_231_sol_in vitro): 1.2

O=C(ON1C(=O)CCC1=O)c1cc(C(F)(F)F)cc(C(F)(F)F)c1 [fragment 46, 3,5-Bis(trifluoromethyl)benzoic acid NHS ester]
isoTOP-ABPP ratio, lysine Q9BRQ3_K60 ([1]; 50 uM_231_sol_in vitro): 0.9
isoTOP-ABPP ratio, lysine Q13630_K108 ([2]; 50 uM_231_sol_in vitro): 2.7
isoTOP-ABPP ratio, lysine P13804_K139 ([3]; 50 uM_231_sol_in vitro): 0.9
isoTOP-ABPP ratio, lysine P05141_K23 ([4]; 50 uM_231_sol_in vitro): 0.9

CC(C)(C)OC(=O)N=C(NC(=O)OC(C)(C)C)n1cccn1 [fragment 50, reference compound]
isoTOP-ABPP ratio, lysine Q9BRQ3_K60 ([1]; 100 uM_231_sol_in vitro): 1.0
isoTOP-ABPP ratio, lysine Q13630_K108 ([2]; 100 uM_231_sol_in vitro): 1.0
isoTOP-ABPP ratio, lysine P13804_K139 ([3]; 100 uM_231_sol_in vitro): 1.1
isoTOP-ABPP ratio, lysine P05141_K23 ([4]; 100 uM_231_sol_in vitro): 12.6
